Assay results as given in patent US6864046B1, “Method for collecting and preserving semen” (Texas Tech University, priority 2000, dated 2005).

test system: spermatozoa; conditions: calcium compound substituted for calcium chloride in Ringer's lactate; culturing 1-24 hr

Compound | semen function (percent motility, FIGS. 5a and 5b)
O=C([O-])[O-].[Ca+2] [calcium carbonate] | maintained best
calcium gluconate | maintained best
calcium phosphate | maintained best
